Laboratory results published in patent US10844051B2, “Substituted oxazoles for the treatment of cancer” (THE ROYAL INSTITUTION FOR THE ADCANCEMENT OF …, priority 2015, dated 2020).
Entries after “also recorded” stand apart in the source; their conditions may differ.

How the values were obtained:
ETV1 = molecular target: T1, ETV1 (Homo sapiens, UniProt P50549); assay: ETV1-dependent reporter assay in HEK293 cells; assay type: cell-based; details: 48 hours
T1 construct: expressed in transfected cells; host or cells: HEK293
T1 sequence (P50549 1-477): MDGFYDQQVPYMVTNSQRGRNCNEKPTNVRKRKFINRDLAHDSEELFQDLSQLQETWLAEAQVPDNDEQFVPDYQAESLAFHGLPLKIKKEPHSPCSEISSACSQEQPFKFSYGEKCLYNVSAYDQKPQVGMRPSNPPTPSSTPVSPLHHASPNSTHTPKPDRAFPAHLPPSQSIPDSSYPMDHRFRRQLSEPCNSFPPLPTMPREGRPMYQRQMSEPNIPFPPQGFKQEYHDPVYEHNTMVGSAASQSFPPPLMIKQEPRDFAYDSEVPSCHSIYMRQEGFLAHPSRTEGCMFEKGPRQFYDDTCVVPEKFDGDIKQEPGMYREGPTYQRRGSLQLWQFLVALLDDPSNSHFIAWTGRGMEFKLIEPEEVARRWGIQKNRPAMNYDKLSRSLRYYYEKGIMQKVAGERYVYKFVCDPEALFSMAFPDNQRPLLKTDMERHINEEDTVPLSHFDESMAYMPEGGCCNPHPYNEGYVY
Procedure: (§1) HEK293 cells were transiently transfected with empty vector (for the NT) or ERG-expressing plasmid as well as pRL-TK (internal control) and PUx3-Luc reporter. Cells were then exposed to DMSO vehicle or compounds at designated doses for 48 hours. Experiments were done in triplicate.
Experiments were done as described above in FIG. 1.1a) except that ERG plasmid was replaced by ETV1 plasmid.

ERG [1] = molecular target: T2, ERG (Homo sapiens, UniProt P11308); assay: Surface Plasmon Resonance (SPR) analysis on amine-coupled ERG; assay type: binding
T2 sequence (P11308 1-486 isoform P11308-3): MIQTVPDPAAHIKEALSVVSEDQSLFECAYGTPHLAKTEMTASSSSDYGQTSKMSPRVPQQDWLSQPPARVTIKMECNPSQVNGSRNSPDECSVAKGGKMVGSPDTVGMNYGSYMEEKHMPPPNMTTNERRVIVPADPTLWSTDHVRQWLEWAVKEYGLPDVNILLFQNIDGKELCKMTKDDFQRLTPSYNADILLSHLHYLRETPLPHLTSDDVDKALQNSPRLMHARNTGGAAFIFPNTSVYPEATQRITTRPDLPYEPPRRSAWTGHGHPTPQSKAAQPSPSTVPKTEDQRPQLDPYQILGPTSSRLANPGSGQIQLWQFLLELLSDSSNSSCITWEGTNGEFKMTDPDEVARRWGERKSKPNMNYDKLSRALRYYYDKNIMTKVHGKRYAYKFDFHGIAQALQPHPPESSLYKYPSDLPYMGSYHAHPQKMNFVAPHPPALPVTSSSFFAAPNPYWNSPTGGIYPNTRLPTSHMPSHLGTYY
Procedure: Steady-state kinetics of compound 648, YK-4-279 (positive control) and bicalutamide (Bic) (negative control) over amine-coupled ERG surfaces with 50 μM injection (25 μL/min×120 sec association+120 sec dissociation). High-density ERG (6000 RU) and reference surface (no ERG) were amine-coupled to CM5 sensors using BIACORE 3000 instrumentation. YK-4-279 is a known ERG inhibitor. Bic is an antagonist of the androgen receptor.
FIG. 1.5b) Preliminary SPR data to characterize binding affinity of compound 648. Rapid on/off kinetics for compound 648 when titrated over amine-coupled ERG surfaces at 0, 10, 20, 30, 40, and 50 μM (25 μL/min×120 sec association+120 sec dissociation).

[2] = system: EZH2, c-Myc and ERG expression in VCaP cells; assay: Expression of EZH2, c-Myc and ERG in VCaP cells; assay type: cell-based; details: 10 μM, 72 hours
Procedure: VCaP cells were exposed to DMSO vehicle control, 648, 698 and 891 at 10 μM for 72 hours in DMEM medium plus 10% FBS or phenol red-free DMEM medium plus 10% charcoal-stripped FBS (CS-FBS).

VCaP cells = assay: Matrigel invasion assay, VCaP; assay type: cell-based; details: 48 hours
Procedure: (§2) Invasion assay was performed using (8.0 μm pore size) BD Matrigel Invasion chambers in 24-well plate (Catalog: 354480, BD Biosc.). 750 μL medium (with 20% FBS) was added into lower chamber of each well (DMEM for VCaP, RPMI 1640 for C4-2B and DU145). Next, 5×10^5 VCaP or 5×10^5 C4-2B or 1×10^4DU145 cells in 500 μL medium (with 0.5% FBS) were seeded into the upper chamber of each well. DMSO vehicle or compounds in DMSO solution were added into upper chamber to reach the designated doses. After 48 hours incubation, the invasive cells attached to the lower surface of the membrane insert were fixed in 10% formalin at room temperature for 30 minutes and stained with 0.05% crystal violet. The number of invasive cells was then counted under a microscope. Invasion experiments were performed in duplicate. ***p<0.0001 when compared with vehicle control.

C4-2B cells = assay: Matrigel invasion assay, C4-2B; assay type: cell-based; details: 48 hours
Procedure: as §2

ERG [3] = molecular target: T2, ERG; assay: ERG-dependent reporter assay in HEK293 cells; assay type: cell-based; set-up: expressed in transfected cells; host or cells: HEK293; details: PUx3-Luc reporter, 48 hours, designated doses
Procedure: as §1

LNCaP cells = assay: MTT cytotoxicity assay in ETV1-positive LNCaP cells; assay type: cell-based; details: 72 hours
Procedure: FIG. 1.8 Cytotoxicity of compounds 827 and 832 in the ETV1-postive LNCaP cells as evaluated by MTT assay (72 hours).

ESE-1 = molecular target: T3, ESE-1 (Homo sapiens, UniProt P78545); assay: ESE-1 dependent reporter assay in HEK293 cells; assay type: cell-based; details: 48 hours
T3 construct: expressed in transfected cells; host or cells: HEK293
T3 sequence (P78545 1-371): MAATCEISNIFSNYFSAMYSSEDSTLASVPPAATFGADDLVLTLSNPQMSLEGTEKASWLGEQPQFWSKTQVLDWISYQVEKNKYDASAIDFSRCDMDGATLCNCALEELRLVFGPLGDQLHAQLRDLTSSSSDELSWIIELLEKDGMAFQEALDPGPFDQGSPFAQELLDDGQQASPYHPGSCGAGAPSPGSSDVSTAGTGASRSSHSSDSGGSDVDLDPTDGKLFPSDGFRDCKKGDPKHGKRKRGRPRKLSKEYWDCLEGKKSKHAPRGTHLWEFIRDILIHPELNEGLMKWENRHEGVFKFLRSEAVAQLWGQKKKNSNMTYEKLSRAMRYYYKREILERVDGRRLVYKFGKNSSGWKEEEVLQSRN
Procedure: as §1
Experiments were done as described above in FIG. 1.1a) except that ERG plasmid was replaced by ESE-1 plasmid.

ETS-2 = molecular target: T4, ETS-2 (Homo sapiens, UniProt P15036); assay: ETS-2 dependent reporter assay in HEK293 cells; assay type: cell-based; details: 48 hours
T4 construct: expressed in transfected cells; host or cells: HEK293
T4 sequence (P15036 whole entry, species assumed): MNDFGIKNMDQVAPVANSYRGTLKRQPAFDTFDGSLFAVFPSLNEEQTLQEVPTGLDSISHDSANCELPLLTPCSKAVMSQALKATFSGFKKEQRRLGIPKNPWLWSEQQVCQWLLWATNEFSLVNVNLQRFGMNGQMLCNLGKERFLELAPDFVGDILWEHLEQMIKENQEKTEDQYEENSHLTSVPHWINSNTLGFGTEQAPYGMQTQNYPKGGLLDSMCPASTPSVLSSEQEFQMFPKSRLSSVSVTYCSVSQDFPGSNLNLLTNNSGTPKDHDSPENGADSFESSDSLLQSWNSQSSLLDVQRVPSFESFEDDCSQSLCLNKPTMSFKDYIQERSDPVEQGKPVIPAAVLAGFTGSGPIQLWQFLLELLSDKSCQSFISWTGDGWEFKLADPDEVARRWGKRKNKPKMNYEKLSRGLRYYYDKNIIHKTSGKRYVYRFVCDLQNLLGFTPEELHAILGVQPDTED
Procedure: as §1
Experiments were done as described above in FIG. 1.1a) except that ERG plasmid was replaced by ETS-2 plasmid.

| ETV1 inhibition in ETV1-dependent reporter assay (ETV1) | direct binding with human ERG protein (SPR) (ERG [1]; 50 μM injection, amine-coupled ERG) | KD for ERG, steady-state affinity model (SPR) (ERG [1]; titrated at 0-50 μM, preliminary data) | ESE-1 inhibition in ESE-1 dependent reporter assay (ESE-1) | ETS-2 inhibition in ETS-2 dependent reporter assay (ETS-2) | SMILES | inhibition of expression of EZH2, c-Myc and ERG [2] | inhibition of invasion of VCaP cells (VCaP cells) | inhibition of invasion of C4-2B cells (C4-2B cells) | ERG inhibition in ERG-dependent reporter assay (ERG [3]) | cytotoxicity in ETV1-positive LNCaP cells (MTT) (LNCaP cells) |
| --- | --- | --- | --- | --- | --- | --- | --- | --- | --- | --- |
| ETV1 inhibitors | direct binding | low micromolar | – | – | Oc1cccc(-c2nc(Cc3c[nH]c4ccccc34)oc2-c2cccc(O)c2)c1 [Compound 648] | inhibit expression of EZH2, c-Myc and ERG | potently inhibits invasion | potently inhibits invasion | potent inhibitor of ERG; also recorded: ERG inhibitors | – |
| ETV1 inhibitors | – | – | – | – | c1coc(-c2nc(Cc3c[nH]c4ccccc34)[nH]c2-c2ccco2)c1 [Compound 832] | – | – | – | – | cytotoxic |
| – | – | – | ESE-1 inhibitors | ETS-2 inhibitor | N#CC(NC(=O)c1ccccc1)SCc1ccccc1 (stereo not drawn) [Compound V154] | – | – | – | ERG inhibitors | – |
